Data set [1] concerns L1210. Kind of data set: Antitumor activity against mouse L1210 cells […] in ip dosed C3H X DBA2 F1 hybrid mouse on day 0 and dosed once daily on days 1 to 5 assessed as increase in life span relative to control. Format: functional.
Data set [2] is described as follows: Lipophilic-hydrophilic balance, Rm of the compound by partition chromatography. The data set is classed as physicochemical.
Data set [3] deals with L1210. As to the kind of experiment: Antitumor activity against mouse L1210 cells […] in ip dosed C3H X DBA2 F1 hybrid mouse on day 0 and dosed at LD10 level once daily on days 1 to 5 assessed as increase in life span relative to control. The data set is classed as functional.
The subject of another data set is Mus musculus. Kind of data set: Toxicity in ip dosed C3H X DBA2 F1 hybrid mouse […] with mouse L1210 cells on day 0 and dosed once daily on days 1 to 5 measured after 50 days. Format: organism-based. The note with it: in vivo, 1200 h.

Where only a bound is given, the exact number is not on record here.

In the case of `CC[n+]1cccc(NC(=O)c2ccc(NC(=O)/C=C/c3ccc(C(=O)Nc4ccc(C(=O)Nc5ccc[n+](CC)c5)cc4)cc3)cc2)c1.Cc1ccc(S(=O)(=O)[O-])cc1.Cc1ccc(S(=O)(=O)[O-])cc1`, the D40 with L1210 [1] was determined as 22 mg/kg. Moreover, the Rm in data set [2] is -0.58. Further, the “log(ILSmax)” value with L1210 [3] stood at 1.88. Further, the LD10 in the data set on Mus musculus turned out to be 55 mg/kg.

The compound `C[n+]1cccc2cc(NC(=O)CCc3ccc(C(=O)Nc4ccc5c(ccc[n+]5C)c4)cc3)ccc21.Cc1ccc(S(=O)(=O)[O-])cc1.Cc1ccc(S(=O)(=O)[O-])cc1` had a Rm in data set [2] of 0.85. Also, the “log(ILSmax)” value with L1210 [3] is less than 1.4. Besides, the LD10 in the data set on Mus musculus is 270 mg/kg.

In turn, `CC[n+]1cccc2cc(NC(=O)c3ccc(NC(=O)c4ccc5c(ccc[n+]5CC)c4)cc3)ccc21.Cc1ccc(S(=O)(=O)[O-])cc1.Cc1ccc(S(=O)(=O)[O-])cc1` registered a Rm in data set [2] of 0.02. Moreover, the “log(ILSmax)” value in the data set on L1210 [3] is less than 1.4. The compound further registered an LD10 in the data set with Mus musculus of 4 mg/kg.

As to `CC[n+]1ccccc1NC(=O)c1ccc(NC(=O)c2ccc(C(=O)Nc3ccc(C(=O)Nc4cccc[n+]4CC)cc3)cc2)cc1.Cc1ccc(S(=O)(=O)[O-])cc1.Cc1ccc(S(=O)(=O)[O-])cc1`, the Rm in data set [2] was determined as 0.57. In addition, the “log(ILSmax)” value in the data set with L1210 [3] was less than 1.4. In addition, in the data set with Mus musculus, the LD10 worked out at 13 mg/kg.

In data set [2], `CCCCC[n+]1cccc2cc(NC(=O)c3ccc(C(=O)Nc4ccc5c(ccc[n+]5CCCCC)c4)nc3)ccc21.Cc1ccc(S(=O)(=O)[O-])cc1.Cc1ccc(S(=O)(=O)[O-])cc1` yielded a Rm of 0.6. Besides, the “log(ILSmax)” value with L1210 [3] is on record as less than 1.4. Besides, the LD10 in the data set with Mus musculus stood at 250 mg/kg.

In data set [2], `CCC[n+]1ccc(Nc2ccc(NC(=O)c3ccc(Nc4cc[n+](CCC)c5ccccc45)cc3)cc2N)cc1.[I-].[I-]` gave a Rm of 0.76. For the same compound, the “log(ILSmax)” value in the data set with L1210 [3] worked out at 1.43. This compound also gave an LD10 with Mus musculus of 4.4 mg/kg.

Regarding `CCC[n+]1cccc(NC(=O)c2ccc(NC(=O)c3ccc(C(=O)Nc4ccc(C(=O)Nc5ccc[n+](CCC)c5)cc4)c(N)c3)cc2)c1.Cc1ccc(S(=O)(=O)[O-])cc1.Cc1ccc(S(=O)(=O)[O-])cc1`, the Rm in data set [2] was found to be 0.2. Besides, the “log(ILSmax)” value in the data set with L1210 [3] is listed as less than 1.4. The LD10 in the data set on Mus musculus turned out to be 47 mg/kg.

Consider `CC[n+]1cccc2cc(NC(=O)CCc3ccc(C(=O)Nc4ccc5c(ccc[n+]5CC)c4)cc3)ccc21.Cc1ccc(S(=O)(=O)[O-])cc1.Cc1ccc(S(=O)(=O)[O-])cc1`, for which, in data set [2], the Rm was determined as 1.1. For the same compound, in the data set on L1210 [3], the “log(ILSmax)” value is on record as less than 1.4. This compound also gave an LD10 in the data set with Mus musculus of 1.6 mg/kg.

Consider `CC[n+]1ccccc1-c1ccc(NC(=O)c2ccc(C(=O)Nc3ccc(-c4cccc[n+]4CC)cc3)cc2)cc1.Cc1ccc(S(=O)(=O)[O-])cc1.Cc1ccc(S(=O)(=O)[O-])cc1`, for which the Rm in data set [2] is 0.26. In the data set on L1210 [3], the “log(ILSmax)” value was less than 1.4. In the data set on Mus musculus, this compound had an LD10 of 10 mg/kg.

On to `CC[n+]1cccc(NC(=O)c2ccc(NC(=O)c3ccc(C(=O)Nc4ccc(C(=O)Nc5ccc[n+](CC)c5)cc4C)cc3)c(C)c2)c1.Cc1ccc(S(=O)(=O)[O-])cc1.Cc1ccc(S(=O)(=O)[O-])cc1`, for which the Rm in data set [2] turned out to be 0.47. The “log(ILSmax)” value with L1210 [3] is reported as less than 1.4. The LD10 in the data set with Mus musculus was determined as 18 mg/kg.

For `CC[n+]1ccc(Nc2ccc(NC(=O)CCCCCCC(=O)Nc3ccc(Nc4cc[n+](CC)cc4)cc3)cc2)cc1.[Br-].[Br-]`, in data set [2], the Rm is recorded as 0.83. Further, in the data set with L1210 [3], the “log(ILSmax)” value was less than 1.4. Also, the LD10 in the data set on Mus musculus was determined as 10 mg/kg.

Compound `CCC[n+]1ccc(Nc2ccc(NC(=O)c3ccc(Nc4cc[n+](CCC)c5ccccc45)cc3N)cc2N)cc1.[I-].[I-]` registered a Rm in data set [2] of 0.63. Moreover, the “log(ILSmax)” value in the data set on L1210 [3] was less than 1.4. Moreover, the LD10 with Mus musculus stood at 15 mg/kg.

Turning to `CC[n+]1cccc2cc(NC(=O)c3ccc(C(=O)Nc4ccc5c(ccc[n+]5CC)c4)cc3)ccc21.Cc1ccc(S(=O)(=O)[O-])cc1.Cc1ccc(S(=O)(=O)[O-])cc1`, the Rm in data set [2] is listed as 0.03. Besides, in the data set on L1210 [3], the “log(ILSmax)” value is given as 1.43. This compound also came in with an LD10 in the data set on Mus musculus of 4 mg/kg.

In data set [2], `C[n+]1ccccc1-c1ccc(NC(=O)c2ccc(C(=O)Nc3ccc(-c4cccc[n+]4C)cc3)cc2)cc1.Cc1ccc(S(=O)(=O)[O-])cc1.Cc1ccc(S(=O)(=O)[O-])cc1` had a Rm of 0.11. The “log(ILSmax)” value in the data set with L1210 [3] is less than 1.4. In addition, the LD10 with Mus musculus turned out to be 10 mg/kg.

Regarding `C[n+]1cccc2cc(NC(=O)/C=C/c3ccc(C(=O)Nc4ccc5c(ccc[n+]5C)c4)cc3)ccc21.Cc1ccc(S(=O)(=O)[O-])cc1.Cc1ccc(S(=O)(=O)[O-])cc1`, the Rm in data set [2] is -0.2. In addition, the “log(ILSmax)” value in the data set with L1210 [3] was less than 1.4. The same compound had an LD10 in the data set with Mus musculus of 3 mg/kg.

The compound `CCCCCC[n+]1cccc2cc(NC(=O)c3ccc(C(=O)Nc4ccc5c(ccc[n+]5CCCCCC)c4)cc3)ccc21.Cc1ccc(S(=O)(=O)[O-])cc1.Cc1ccc(S(=O)(=O)[O-])cc1` came in with a Rm in data set [2] of 1.03. The “log(ILSmax)” value with L1210 [3] was less than 1.4. For the same compound, the LD10 in the data set with Mus musculus stood at 27 mg/kg.

As to `CCC[n+]1cccc2cc(NC(=O)CCc3ccc(C(=O)Nc4ccc5c(ccc[n+]5CCC)c4)cc3)ccc21.Cc1ccc(S(=O)(=O)[O-])cc1.Cc1ccc(S(=O)(=O)[O-])cc1`, in data set [2], the Rm amounted to 1.25. For the same compound, in the data set on L1210 [3], the “log(ILSmax)” value is listed as less than 1.4. In the data set on Mus musculus, the LD10 stood at 2 mg/kg.

In the case of `CCC[n+]1cccc(NC(=O)c2ccc(NC(=O)C34CCC(C(=O)Nc5ccc(C(=O)Nc6ccc[n+](CCC)c6)cc5)(CC3)CC4)cc2)c1.Cc1ccc(S(=O)(=O)[O-])cc1.Cc1ccc(S(=O)(=O)[O-])cc1`, the Rm in data set [2] was 0.86. Further, the “log(ILSmax)” value with L1210 [3] is 1.54. In addition, the LD10 with Mus musculus was found to be 30 mg/kg.

Compound `CCC[n+]1cccc(NC(=O)c2ccc(NC(=O)c3ccc(C(=O)Nc4ccc(C(=O)Nc5ccc[n+](CCC)c5)cc4)c(Cl)c3)cc2)c1.Cc1ccc(S(=O)(=O)[O-])cc1.Cc1ccc(S(=O)(=O)[O-])cc1` yielded a Rm in data set [2] of 0.75. In addition, the “log(ILSmax)” value in the data set with L1210 [3] is reported as less than 1.4. For the same compound, in the data set with Mus musculus, the LD10 is 40 mg/kg.

Consider `C[n+]1cccc2cc(NC(=O)COc3ccc(C(=O)Nc4ccc5c(ccc[n+]5C)c4)cc3)ccc21.Cc1ccc(S(=O)(=O)[O-])cc1.Cc1ccc(S(=O)(=O)[O-])cc1`, for which, in data set [2], the Rm is recorded as -0.3. The “log(ILSmax)” value in the data set on L1210 [3] was less than 1.4. The compound further came in with an LD10 in the data set on Mus musculus of 0.6 mg/kg.

In data set [2], `C[n+]1ccccc1NC(=O)c1ccc(NC(=O)c2ccc(C(=O)Nc3ccc(C(=O)Nc4cccc[n+]4C)cc3)cc2)cc1.Cc1ccc(S(=O)(=O)[O-])cc1.Cc1ccc(S(=O)(=O)[O-])cc1` gave a Rm of 0.11. Besides, in the data set on L1210 [3], the “log(ILSmax)” value is recorded as less than 1.4. In the data set on Mus musculus, this compound gave an LD10 of 7 mg/kg.

Consider `CC[n+]1cccc2cc(NC(=O)c3ccc(C(=O)Nc4ccc5c(ccc[n+]5CC)c4)c(N)c3)ccc21.Cc1ccc(S(=O)(=O)[O-])cc1.Cc1ccc(S(=O)(=O)[O-])cc1`, for which the Rm in data set [2] is recorded as -0.01. Moreover, in the data set with L1210 [3], the “log(ILSmax)” value is less than 1.4. Also, in the data set with Mus musculus, the LD10 is 6 mg/kg.

For the compound `CCC[n+]1ccccc1NC(=O)c1ccc(NC(=O)c2ccc(C(=O)Nc3ccc(C(=O)Nc4cccc[n+]4CCC)cc3)cc2)cc1.Cc1ccc(S(=O)(=O)[O-])cc1.Cc1ccc(S(=O)(=O)[O-])cc1`, in data set [2], the Rm came to 0.73. Further, the “log(ILSmax)” value in the data set on L1210 [3] is recorded as less than 1.4. Moreover, the LD10 in the data set on Mus musculus is 100 mg/kg.

The record behind these values is ChEMBL document CHEMBL3228010, “Potential antitumor agents. 29. Quantitative structure-activity relationships for the antileukemic bisquaternary ammonium heterocycles” (J Med Chem, 1979).
